Measurements: patent US20160220464A1 (WUHAN OPTICS VALLEY BRIDGEBIOMED INTERNATIONAL CORPORATION, priority 2013, published 2016)
Read-outs that look alike come from different tables or passages of the source.

Columns and labels:
[1] = molecular target: T1, bradykinin (BK) B2 receptors (Homo sapiens, UniProt P30411); test: PG secretion by BK B2 receptor agonists (PG kit, OD), EC50 and Emax; type: cell-based; conditions: HASMC; for Emax: relative to BK
T1 construct: The cell strains used in the study were human primary vein endothelial cells (HPVEC) and human aortic smooth muscle cells (HASMC); endogenous in cells; host or cells: human primary vein endothelial cells (HPVEC) and human aortic smooth muscle cells (HASMC)
T1 sequence (P30411 1-391): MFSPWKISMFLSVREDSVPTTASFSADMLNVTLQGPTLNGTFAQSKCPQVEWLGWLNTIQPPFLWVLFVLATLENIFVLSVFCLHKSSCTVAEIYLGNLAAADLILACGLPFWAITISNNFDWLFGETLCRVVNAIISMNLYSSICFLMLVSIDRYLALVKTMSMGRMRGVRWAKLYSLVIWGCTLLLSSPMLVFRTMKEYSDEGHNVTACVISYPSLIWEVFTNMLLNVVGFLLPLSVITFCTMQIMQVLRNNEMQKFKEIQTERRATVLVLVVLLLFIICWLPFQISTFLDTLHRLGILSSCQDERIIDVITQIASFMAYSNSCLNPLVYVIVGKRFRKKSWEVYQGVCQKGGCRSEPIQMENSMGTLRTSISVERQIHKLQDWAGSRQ
Protocol: Implantation Two cell lines were transferred into T-75 cell culture flask, and then the instructions of PG kit were strictly followed when cells have reached the appropriate density. Day 1 Cells were seeded in 24 well dishes with minimum medium and allowed to adhere overnight. Day 2 Cells were starved in the serum-free conditioned medium. Day 3 Minimum medium were used, and YLB-01, YLB-02 and YLB-03 were added to the medium, in which the concentration was 0.1 nM, 1 nM, 10 nM, 30 nM, 100 nM, 300 nM, 1 μM, 3 μM and 10 μM, respectively; the cells were incubated at 37° C. for 1 h. The supernatant was collected after incubation for later use. Day 4 24 well dishes were washed and then dyed for 45-90 min, and then the OD value was measured for analysis. The cell strains used in the study were human primary vein endothelial cells (HPVEC) and human aortic smooth muscle cells (HASMC).

[2] = tested on: human primary vein endothelial cells (HPVEC); test: PG subtype secretion by EIA in HPVEC; type: cell-based; conditions: 10 nM, 1 μM BK set as 100%
Protocol: In order to study of prostaglandin subtypes secretion triggered by activation of B2 receptor by these three compounds, human primary vein endothelial cells (HPVEC) and human aortic smooth muscle cells (HASMC) were used for PG secretion, following the same protocol above; 10 nM of these compounds, YLB-1, YLB-2, YLB-3 was added. […] These percentage values above were all calibrated with respect to bradykinin.

[3] = tested on: human lower leg hair; test: Hair growth after topical 0.3% suspension on human lower leg; type: in vivo; conditions: twice a day
Source text: (§1) The B2 receptor agonist (YLB-01) suspension with 0.3% concentration was obtained for clinical use as described above. The suspension was applied to human lower leg twice a day, for 3 months; hair growth was observed. The treated areas were observed daily to monitor hair growth and side effects, e.g. swelling, pruritus, pain, etc. And the treated parts were photographed weekly.
as §1, with “above and” for “above. The suspension”

Structure (SMILES): CNC(=O)c1ccc(CCC(=O)NCC(=O)N(C)c2ccc(Cl)c(COc3cccc4c3nc(OC)n4Cc3ccccn3)c2Cl)cc1 [YLB-01, 4-(3-2-((2,4-dichloro-3-((2-methoxy-1-(pyridine-2ylmethyl)-1H-benzo[d]imidazol-4-yloxy)methyl)phenyl)(methyl)amino-2-oxoethylamino)-3-oxopropyl)-N-methylbenzamid]
- EC50 ([1]; 1 h incubation at 37° C.): 0.0244 ± 0.003 µM
- Emax ([1]; read-out: Emax): 87%
- Emax [1]: 87.79 ± 4.2%
- PGD2 [2]: undetectable
- PGE2 [2]: 30.24 ± 5.40%
- PGF-2a [2]: 6.29 ± 1.01%
- hair growth ([3]; 0 week): 0 mm
- hair growth ([3]; 2 weeks): 4.89 ± 0.38 mm
- hair growth ([3]; 3 weeks): 6.82 ± 0.4 mm
- hair growth ([3]; 4 weeks): 9.61 ± 0.55 mm
- hair growth compared with control group (photos, FIG. 2) ([3]; 3 months): hairs grew more quickly than those in control group
- new hair growth in parts used to be bald (photos, FIG. 1) ([3]; 3 months): tiny new hairs grew out
